In the experiment the test system is blood collected from volunteers. Briefly: Measurement of whole blood clotting time (Sonoclot, ACT ONSET value). Also on record: species or system human. The protocol: To a cuvette (NON-ACTIVATED CLOTTING TEST KIT), 18 μL of physiological saline was placed, and 14.8 μL of calcicol was added thereto, followed by further adding 342 μL of blood supplemented with citric acid. Thereafter, the measurement using Sonoclot blood coagulation/platelet function analyzer (IMI Co., Ltd.) was carried out to define the obtained ACT ONSET value as whole blood clotting time.

Consider one compound from patent US20140113091A1, “MEDICAL SUPPLY” (Toray Industries, Inc., priority 2011, published 2014).

Take `CC1CNc2c(cccc2S(=O)(=O)N[C@@H](CCCNC(=N)N)C(=O)N2CC[C@@H](C)C[C@@H]2C(=O)O)C1` (mixture of isomers) [argatroban]: the “whole blood clotting time” value by setting is: (2 μM argatroban solution) 531 s; (10 μM argatroban solution) 746 s; (20 μM argatroban solution) 849 s.
